From PMC4997316, “A ruthenium polypyridyl intercalator stalls DNA replication forks, radiosensitizes human cancer cells and is enhanced by Chk1 inhibition” (Scientific Reports, 2016)

What was measured:
HeLa cells = assay: irradiation and clonogenic survival assay; assay type: cell-based, human; settings: for DEF (dose enhancement factor): LD10 [without complex]/LD10 [with complex]; for Radiosensitivity (AUC): area under the survival curve, DMSO 3.83; for LD10: from regression of survival curves, DMSO 6.7; for radiation enhancement ratio (RER): radiosensitivity [without complex]/radiosensitivity [with complex]
Protocol: Chemotherapeutics are often used in combination with external beam ionising radiation in the treatment of cancers and many drugs that inhibit DNA replication are potent radiosensitizers. To examine the possibility that 1 may function as a radiosensitizer, HeLa cells were pre-treated with 1 for 20 h before irradiation (0–6 Gy ionising irradiation (IR); ^137Cs-γ-rays; dose rate = 0.809 Gy min^−1). After further incubation for 4 h with the complex, the relative impact on cell viability was assessed by clonogenic survival. Complex 2, which achieves its impact on cell proliferation through non-DNA damage-based autophagy, was included in parallel for comparison. […] The formation of γH2AX is an early response to IR-induced DSB generation and may provide an indication of DNA damage levels. […] These findings indicate increased levels of DNA damage at an early time point accompany the enhanced radiation-induced cell killing in HeLa cells radiosensitised by 1.
HeLa cells were pre-treated with DMSO, 1 or 2 for 20 h and irradiated using a ^137Cs γ-irradiator (IBL637, CIS Bio Int.; dose rate = 0.809 Gy min^−1). Solutions were removed 4 h after irradiation; cells detached using Trypsin and re-seeded in 6 well plates at a density of 1000 cells/well (in triplicate). Cells were incubated for 7–10 days after re-seeding to allow colony formation before being fixed with 10% methanol, 10% acetic acid and stained with 0.4% methylene blue. Colonies containing 50 cells or greater were counted using a Gelcount instrument and accompanying software (Oxford Optronix). Plating efficiencies were determined for each treatment condition and normalised to controls to provide the survival fraction. Resultant survival fraction (S.F.) versus radiation dose curves were fitted using a second order polynomial function (R^2 values > 0.99). […]
Table S2. Radiosensitization data for 1 and 2 in HeLa cells.
LD10 (Gy) DEF Radiosensitivity RER
Survival variables LD10 (10 % lethal dose) and radiosensitivity, which is expressed as the area under
the survival curve (AUC), derived from linear regression analyses of survival curves (R 2 values ≥
0.989 for all fits). Dose enhancement factor (DEF) = LD 10 [without complex]/LD10 [with complex].
Radiation enhancement ratio (RER) = radiosensitivity [without complex]/radiosensitivity [with

[1] = octanol/water partition coefficient (Log P)
[2] = system: replication forks in HeLa cells; assay: DNA fibre assay (replication fork progression); assay type: cell-based, human; settings: for median IdU tract length: 40 μM added during 30 min IdU pulse, mock 6.10 μm
Protocol: Replication tracks were sequentially pulse-labelled with CldU (red) and IdU (green) and the addition of 1 or 2 during the second (IdU) pulse enabled us to evaluate the immediate effect of each complex on individual replication fork progression in S phase cells (Figs 3a and S12).
DNA fibre assays and immunofluorescent staining were performed as described elsewhere, employing sequential CldU and IdU incubation times of 30 mins each. The second nucleotide (IdU) was incubated in the presence of 1, 2 (40 μM) or a DMSO (0.5%) control. Fibres were visualised with a Leica DMRB microscope with a DFC360FX camera. Lengths of CldU- and IdU-labeled tracts were measured by ImageJ software. Statistical analysis was performed using GraphPad Prism software using unpaired t-test.

[3] = system: cleaved caspase-3 and LC3-II in HeLa cells; assay: Western blotting for cell death markers (cleaved caspase 3, LC3-II); assay type: cell-based, human; settings: 24 h, concentrations centred on IC50
Protocol: Figure 2 Complexes 1 and 2 are internalised by cancer cells and impact proliferation. (a) Effect of 40 μM 1 or 2 (0–72 h incubation time) on numbers of viable (left) and non-viable (right, data expressed as % total cells, independent of viability) HeLa cells (in triplicate, +/− SD). […] (c) Intracellular Ru levels of HeLa cells treated with 1 or 2 (40 μM, 24 h), as determined by ICP-MS. (d) Ru levels within isolated subcellular fractions of HeLa cells treated with 1 or 2 (40 μM, 24 h). Fractions: C = cytoplasm and cytoskeleton, M = membrane, N = nucleus. Successful fractionation confirmed by immunoblotting (right). All ICP-MS data were normalised to protein content of the corresponding fraction and are the mean of two independent experiments +/− SEM. (e) Epifluorescence microscopy of HeLa cells treated with 1 or 2 (40 μM, 24 h) showing intracellular MLCT emission. Co-staining with nuclear stain DAPI included. Scale bars = 20 μm.
Cells were incubated as stated, washed with cold PBS and lysed in RIPA (radioimmunoprecipitation assay) buffer containing protease inhibitors (10 μg/ml leupeptin, 2 μg/ml pepstatin, 50 μg/ml antipain, 2 μg/ml aprotinin, 20 μg/ml chyprostatin, 2 μg/ml benzamidine, 1 mM phenylmethanesulfonyl fluoride) and phosphatase inhibitors (50 mM NaF, 1 mM Na3VO4 and 20 mM β-glycerophosphate). Aliquots of cell lysates (5–20 μg total protein) were resolved by NuPAGE® 4–12% Bis-Tris gels and LDS-PAGE, transferred onto nitrocellulose membrane and probed with primary antibodies in 5% BSA (bovine serum albumin) solutions. Reactions were visualised with a suitable secondary antibody conjugated with horseradish peroxidase (Thermo). Pierce ECL (Thermo) or WesternSurePREMIUM (Li-Cor) chemiluminescent substrates with X-ray development (Fuji medical film and Optimax 2010 processor) or digital analysis (LiCor C-Digit Blot Scanner) were used to visualise protein expression. Li-Cor Image Studio Lite software was used for densitometry data acquisition.

MCF7 breast cancer cells = assay: MTT proliferation assay, MCF7; assay type: cell-based, human; settings: 24 h proliferation assay
Protocol: (LC3 = Microtubule-associated protein light chain 3) (Fig. 2b, bottom).
Cells were seeded in 96 well plates at 20,000 cells/well, allowed to proliferate for 24 h before treatment as described in the main text. 0.5 mg ml^−1 MTT (thiazolyl blue tetrazolium bromide) dissolved in serum-free media was added for 60 minutes and the formazan product eluted using acidified isopropanol. The absorbance at 540 nm was quantified by plate reader (reference wavelength 650 nm). The metabolic activity of the cell population was determined as a percentage of a negative (solvent) control.

| Compound | DEF (dose enhancement factor) (HeLa cells; 40 μM) | Radiosensitivity (AUC) (HeLa cells; 40 μM) | LD10 (HeLa cells; 40 μM) [Gy] | radiation enhancement ratio (RER) (HeLa cells; 40 μM) | Log P [1] | median IdU tract length [2] [μm] | impact on replication fork progression ([2]; 40 μM during IdU pulse) | generation of apoptosis marker cleaved caspase-3 [3] | levels of autophagy marker LC3-II [3] | IC50 (MCF7 breast cancer cells) [µM] | decrease in cell survival versus 6 Gy γ-rays alone (HeLa cells; 40 μM plus 6 Gy) [fold] | survival fraction (S.F.) with 6 Gy γ-rays (HeLa cells; 40 μM, 20 h before and 4 h after irradiation, 6 Gy alone 21.1 +/− 2%) | survival fraction (S.F.) in the absence of radiation (HeLa cells; 40 μM, 24 h) | stalled replication forks (red tract only), of total replication forks ([2]; 40 μM during IdU pulse, mock 7.5 +/− 1%) |
| --- | --- | --- | --- | --- | --- | --- | --- | --- | --- | --- | --- | --- | --- | --- |
| Oc1ccc(-c2nc3c4cccnc4c4ncccc4c3[nH]2)cc1.[Ru+2].c1ccc2nc3c4cccnc4c4ncccc4c3nc2c1.c1ccc2nc3c4cccnc4c4ncccc4c3nc2c1 [Complex 2, [Ru(dppz)2(p-HPIP)]^2+] | 1.14 | 3.39 | 5.9 | 1.13 | 0.076 | 6.24 | negligible impact on replication fork progression | no generation of the apoptosis marker cleaved caspase-3 | greater in cells treated with 2 at IC50 concentrations or greater compared to untreated | 12 |  |  |  |  |
| [Ru+2].c1ccc(-c2nc3c4cccnc4c4ncccc4c3[nH]2)cc1.c1ccc2nc3c4cccnc4c4ncccc4c3nc2c1.c1ccc2nc3c4cccnc4c4ncccc4c3nc2c1 [Complex 1, [Ru(dppz)2(PIP)]^2+] | 1.49 | 2.59 | 4.5 | 1.48 | 0.403 | 2.18 |  | no generation of the apoptosis marker cleaved caspase-3 | no detectable increase | 28 | 6.8 | 3.1 +/− 1% | ~ 85% | 17 +/− 1% |
